Molecules are shown by their SMILES.

For the assay, the target named is T1, hTLR9 (Homo sapiens, UniProt Q9NR96).
T1 sequence (Q9NR96 26-1032): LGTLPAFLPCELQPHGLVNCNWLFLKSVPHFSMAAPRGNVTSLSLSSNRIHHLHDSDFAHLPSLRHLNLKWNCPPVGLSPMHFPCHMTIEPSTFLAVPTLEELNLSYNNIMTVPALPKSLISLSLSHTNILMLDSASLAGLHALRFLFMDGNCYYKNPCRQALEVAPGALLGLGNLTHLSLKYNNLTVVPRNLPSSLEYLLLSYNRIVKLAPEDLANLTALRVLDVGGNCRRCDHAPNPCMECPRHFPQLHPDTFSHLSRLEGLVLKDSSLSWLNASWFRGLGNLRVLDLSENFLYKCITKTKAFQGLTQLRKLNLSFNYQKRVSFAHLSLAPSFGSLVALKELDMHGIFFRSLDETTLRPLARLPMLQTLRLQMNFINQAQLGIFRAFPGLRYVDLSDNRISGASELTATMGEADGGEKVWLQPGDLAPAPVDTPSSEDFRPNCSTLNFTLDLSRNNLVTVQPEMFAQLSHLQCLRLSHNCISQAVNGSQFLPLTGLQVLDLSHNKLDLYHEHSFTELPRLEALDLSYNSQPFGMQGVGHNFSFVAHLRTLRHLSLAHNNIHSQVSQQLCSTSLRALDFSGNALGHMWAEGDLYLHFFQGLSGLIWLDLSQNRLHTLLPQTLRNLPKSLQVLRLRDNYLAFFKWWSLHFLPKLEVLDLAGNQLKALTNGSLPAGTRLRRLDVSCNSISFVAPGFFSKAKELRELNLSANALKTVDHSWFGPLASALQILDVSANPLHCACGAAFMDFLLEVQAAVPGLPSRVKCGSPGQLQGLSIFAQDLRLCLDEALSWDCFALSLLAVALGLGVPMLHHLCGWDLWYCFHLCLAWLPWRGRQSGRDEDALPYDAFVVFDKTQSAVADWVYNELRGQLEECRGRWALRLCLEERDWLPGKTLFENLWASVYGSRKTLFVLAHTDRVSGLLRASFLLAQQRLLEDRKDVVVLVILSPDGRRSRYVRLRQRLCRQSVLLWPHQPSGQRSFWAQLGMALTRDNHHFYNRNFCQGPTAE
Briefly: HEK293-Blue-hTLR-9 cells assay (SEAP reporter, ODN2006 stimulation). Details: host or cells: HEK293 (HEK-Blue hTLR9). It counts as cell-based. To be noted: HEK293-Blue-hTLR9 cells, ODN2006, 20 hrs; read-out: HEK/hTLR9 IC50. The text has this: HEK293-Blue-hTLR-9 Cells Assay:
A stable HEK293-Blue-hTLR-9 cell line was purchased from InvivoGen (Cat. #: hkb-htlr9, San Diego, Calif., USA). These cells were originally designed for studying the stimulation of human TLR9 by monitoring the activation of NF-κB. A SEAP (secreted embryonic alkaline phosphatase) reporter gene was placed under the control of the IFN-β minimal promoter fused to five NF-κB and AP-1-binding sites. The SEAP was induced by activating NF-κB and AP-1 via stimulating HEK-Blue hTLR9 cells with TLR9 ligands. Therefore the reporter expression was declined by TLR9 antagonist under the stimulation of a ligand, such as ODN2006 (Cat. #: tlrl-2006-1, Invivogen, San Diego, Calif., USA), for incubation of 20 hrs. The cell culture supernatant SEAP reporter activity was determined using QUANTI-Blue™ kit (Cat. #: rep-qb1, Invivogen, San Diego, Calif., USA) at a wavelength of 640 nm, a detection medium that turns purple or blue in the presence of alkaline phosphatase.
HEK293-Blue-hTLR9 cells were incubated at a density of 250,000˜450,000 cells/mL in a volume of 170 μL in a 96-well plate in Dulbecco's Modified Eagle's medium (DMEM) containing 4.5 g/L glucose, 50 U/mL penicillin, […], 2 mM L-glutamine, 10% (v/v) heat-inactivated fetal bovine serum with addition of 20 μL test compound in a serial dilution in the presence of final DMSO at 1% and 10 μL of 20 uM ODN2006 in above DMEM, perform incubation under 37° C. in a CO2 incubator for 20 hrs. Then 20 μL of the supernatant from each well was incubated with 180 μL Quanti-blue substrate solution at 37° C. for 2 h and the absorbance was read at 620-655 nm using a spectrophotometer. The signaling pathway that TLR9 activation leads to downstream NF-κB activation has been widely accepted, and therefore similar reporter assay was modified for evaluating TLR9 antagonist.
With `[2H]c1ccc2c(N3C[C@H](CN4CCN(c5ccc(N6C[C@H](N)[C@@H](F)C6)nc5)CC4)O[C@H](C)C3)ccc(C#N)c2n1` [Example 150, 5-[(2S,6R)-2-[[4-[6-[(3S,4S)-3-amino-4-fluoro-pyrrolidin-1-yl]-3-pyridyl]piperazin-1-yl]methyl]-6-methyl-morpholin-4-yl]-2-deuterio-quinoline-8-carbonitrile], the IC50 was determined as 175 nM. Regarding `CO[C@H]1CN(c2nccc(N3CCN(C[C@H]4CN(c5ccc(C#N)c6nccnc56)C[C@@H](C)O4)CC3)n2)C[C@@H]1N` [Example 99, 8-[(2S,6R)-2-[[4-[2-[(3S,4S)-3-amino-4-methoxy-pyrrolidin-1-yl]pyrimidin-4-yl]piperazin-1-yl]methyl]-6-methyl-morpholin-4-yl]quinoxaline-5-carbonitrile], the IC50 came to 63 nM. Then `Cc1cc(N2C[C@@H](N)[C@](C)(O)C2)nc(N2CCN(C[C@H]3CN(c4ccc(C#N)c5nccnc45)C[C@@H](C)O3)CC2)n1` [Example 125, 8-[(2S,6R)-2-[[4-[4-[(3R,4R)-4-amino-3-hydroxy-3-methyl-pyrrolidin-1-yl]-6-methyl-pyrimidin-2-yl]piperazin-1-yl]methyl]-6-methyl-morpholin-4-yl]quinoxaline-5-carbonitrile], with 83 nM; and `[2H]c1ccc2c(N3C[C@H](CN4CCN(c5cccc(N6CC(C)(N)C6)n5)CC4)O[C@H](C)C3)ccc(C#N)c2n1` [Example 155, 5-[(2S,6R)-2-[[4-[6-(3-amino-3-methyl-azetidin-1-yl)-2-pyridyl]piperazin-1-yl]methyl]-6-methyl-morpholin-4-yl]-2-deuterio-quinoline-8-carbonitrile], with 71 nM.

As for `[2H]c1ccc2c(N3C[C@H](CN4CCN(c5ccc(N6CC(C)(N)C6)nc5C)CC4)O[C@H](C)C3)ccc(C#N)c2n1` [Example 137, 5-[(2S,6R)-2-[[4-[6-(3-amino-3-methyl-azetidin-1-yl)-2-methyl-3-pyridyl]piperazin-1-yl]methyl]-6-methyl-morpholin-4-yl]-2-deuterio-quinoline-8-carbonitrile], the IC50 turned out to be 66 nM. Next, `CO[C@@H]1CN(c2nccc(N3CCN(C[C@H]4CN(c5ccc(C#N)c6nccnc56)C[C@@H](C)O4)CC3)n2)C[C@H]1N` [Example 98, 8-[(2S,6R)-2-[[4-[2-[(3R,4R)-3-amino-4-methoxy-pyrrolidin-1-yl]pyrimidin-4-yl]piperazin-1-yl]methyl]-6-methyl-morpholin-4-yl]quinoxaline-5-carbonitrile]: 49 nM; `Cc1cc(N2C[C@@H](N)[C@@H](F)C2)nc(N2CCN(C[C@H]3CN(c4ccc(C#N)c5nccnc45)C[C@@H](C)O3)CC2)n1` [Example 115, 8-[(2S,6R)-2-[[4-[4-[(3R,4S)-3-amino-4-fluoro-pyrrolidin-1-yl]-6-methyl-pyrimidin-2-yl]piperazin-1-yl]methyl]-6-methyl-morpholin-4-yl]quinoxaline-5-carbonitrile]: 38 nM; `C[C@@H]1CN(c2ccc(C#N)c3nccnc23)C[C@H](CN2CCN(c3ccnc(N4CC[C@H](N)[C@H](F)C4)n3)CC2)O1` [Example 111, 8-[(2S,6R)-2-[[4-[2-[(3R,4S)-4-amino-3-fluoro-1-piperidyl]pyrimidin-4-yl]piperazin-1-yl]methyl]-6-methyl-morpholin-4-yl]quinoxaline-5-carbonitrile]: 37 nM. Next, `Cc1cc(N2CCNCC2)nc(N2CCN(C[C@H]3CN(c4ccc(C#N)c5nccnc45)C[C@@H](C)O3)CC2)n1` [Example 114, 8-[(2R,6S)-2-methyl-6-[[4-(4-methyl-6-piperazin-1-yl-pyrimidin-2-yl)piperazin-1-yl]methyl]morpholin-4-yl]quinoxaline-5-carbonitrile]: 62 nM.

Consider `[2H]c1ccc2c(N3C[C@H](CN4CC(O)(c5ccc(N6CC(C)(N)C6)cc5)C4)O[C@H](C)C3)ccc(C#N)c2n1` [Example 156, 5-[(2S,6R)-2-[[3-[4-(3-amino-3-methyl-azetidin-1-yl)phenyl]-3-hydroxy-azetidin-1-yl]methyl]-6-methyl-morpholin-4-yl]-2-deuterio-quinoline-8-carbonitrile], for which the IC50 amounted to 46 nM. Next, `Cc1cc(N2CCN(C[C@H]3CN(c4ccc(C#N)c5nccnc45)C[C@@H](C)O3)CC2)nc(N2CC(N)C2)n1` [Example 112, 8-[(2S,6R)-2-[[4-[2-(3-aminoazetidin-1-yl)-6-methyl-pyrimidin-4-yl]piperazin-1-yl]methyl]-6-methyl-morpholin-4-yl]quinoxaline-5-carbonitrile]: 65 nM; `Cc1cc(N2CC(N)C2)nc(N2CCN(C[C@H]3CN(c4ccc(C#N)c5nccnc45)C[C@@H](C)O3)CC2)n1` [Example 123, 8-[(2S,6R)-2-[[4-[4-(3-aminoazetidin-1-yl)-6-methyl-pyrimidin-2-yl]piperazin-1-yl]methyl]-6-methyl-morpholin-4-yl]quinoxaline-5-carbonitrile]: 31 nM; `[2H]c1ccc2c(N3C[C@H](CN4CCN(c5nc(C)cc(N6C[C@H](OC)[C@@H](N)C6)n5)CC4)O[C@H](C)C3)ccc(C#N)c2n1` [Example 134, 5-[(2S,6R)-2-[[4-[4-[(3S,4S)-3-amino-4-methoxy-pyrrolidin-1-yl]-6-methyl-pyrimidin-2-yl]piperazin-1-yl]methyl]-6-methyl-morpholin-4-yl]-2-deuterio-quinoline-8-carbonitrile]: 48 nM. Then `C[C@@H]1CN(c2ccc(C#N)c3ncccc23)C[C@H](CN2CCC(c3cccc(C4CCNCC4)c3)CC2)O1` [Example 2, 5-[(2R,6S)-2-methyl-6-[[4-[3-(4-piperidyl)phenyl]-1-piperidyl]methyl]morpholin-4-yl]quinoline-8-carbonitrile], with 74 nM; and `[2H]c1ccc2c(N3C[C@H](CN4CCN(c5ccc(N6CC7(CNCCO7)C6)nc5)CC4)O[C@H](C)C3)ccc(C#N)c2n1` [Example 152, 2-deuterio-5-[(2R,6S)-2-methyl-6-[[4-[6-(5-oxa-2,8-diazaspiro[3.5]nonan-2-yl)-3-pyridyl]piperazin-1-yl]methyl]morpholin-4-yl]quinoline-8-carbonitrile], with 99 nM.

With `[2H]c1ccc2c(N3C[C@H](CN4CCN(c5nc(C)cc(N6CC(N)C6)n5)CC4)O[C@H](C)C3)ccc(C#N)c2n1` [Example 136, 5-[(2S,6R)-2-[[4-[4-(3-aminoazetidin-1-yl)-6-methyl-pyrimidin-2-yl]piperazin-1-yl]methyl]-6-methyl-morpholin-4-yl]-2-deuterio-quinoline-8-carbonitrile], the IC50 stood at 33 nM. As for `C[C@@H]1CN(c2ccc(C#N)n3ncc(F)c23)C[C@H](CN2CC(c3ccc(N4CC(C)(N)C4)nc3)C2)O1` [Example 158, 4-[(2S,6R)-2-[[3-[6-(3-amino-3-methyl-azetidin-1-yl)-3-pyridyl]azetidin-1-yl]methyl]-6-methyl-morpholin-4-yl]-3-fluoro-pyrazolo[1,5-a]pyridine-7-carbonitrile], the IC50 was found to be 41 nM.

For the origin of these results see patent US20210395239A1 (Hoffmann-La Roche Inc., priority 2018, published 2021).
